# Target: T1, human GluR2 flip (unedited) AMPA receptor subunit (Homo sapiens, UniProt P42262)
# T1 construct: expressed in transfected cells; host or cells: HEK 293 cells, stably expressing or transiently transfected
# Assay: Calcium influx fluorescence assay (FLUO4, FLIPR)
# Format: cell-based
# Details: HEK 293 cells expressing human GluR2 flip (unedited); potentiation of response to 100 μM glutamate; peak fluorescence
# Experimental: The ability of the compounds of the invention to potentiate glutamate receptor-mediated response were determined a) by using fluorescent calcium-indicator dyes such as FLUO4 and additionally for some compounds, b) by measuring glutamate-evoked current recorded from human GluR2 flip unedited HEK293 cells.
# a) Calcium Influx Fluorescence Assay
# 384 well plates were prepared containing confluent monolayer of HEK 293 cells either stably expressing or transiently transfected with human GluR2 flip (unedited) AMPA receptor subunit. These cells form functional homotetrameric AMPA receptors. […]
# The cell plate was then transferred into a fluorescence imaging plate based reader [such as the FLIPR384 (Molecular Devices)]. A baseline fluorescence reading was taken over a 10 to 240 second period, and then 10 μL from each plate containing a compound of the invention made up in standard buffer solution (in a concentration range from 100 μM to 10 μM) was added (to give a final concentration in the range 30 μM to 3 μM). The fluorescence was read over 5 minute period. […] The fluorescence was then read over a 4 minute period. The activities of the compounds of the invention and reference compounds were determined by measuring peak fluorescence after the last addition. The activity was also expressed relative to the fluorescence increase induced by cyclothiazide at their maximum response (i.e. greater than 30 μM).
# T1 sequence (P42262 25-883 isoform P42262-2 limits assumed): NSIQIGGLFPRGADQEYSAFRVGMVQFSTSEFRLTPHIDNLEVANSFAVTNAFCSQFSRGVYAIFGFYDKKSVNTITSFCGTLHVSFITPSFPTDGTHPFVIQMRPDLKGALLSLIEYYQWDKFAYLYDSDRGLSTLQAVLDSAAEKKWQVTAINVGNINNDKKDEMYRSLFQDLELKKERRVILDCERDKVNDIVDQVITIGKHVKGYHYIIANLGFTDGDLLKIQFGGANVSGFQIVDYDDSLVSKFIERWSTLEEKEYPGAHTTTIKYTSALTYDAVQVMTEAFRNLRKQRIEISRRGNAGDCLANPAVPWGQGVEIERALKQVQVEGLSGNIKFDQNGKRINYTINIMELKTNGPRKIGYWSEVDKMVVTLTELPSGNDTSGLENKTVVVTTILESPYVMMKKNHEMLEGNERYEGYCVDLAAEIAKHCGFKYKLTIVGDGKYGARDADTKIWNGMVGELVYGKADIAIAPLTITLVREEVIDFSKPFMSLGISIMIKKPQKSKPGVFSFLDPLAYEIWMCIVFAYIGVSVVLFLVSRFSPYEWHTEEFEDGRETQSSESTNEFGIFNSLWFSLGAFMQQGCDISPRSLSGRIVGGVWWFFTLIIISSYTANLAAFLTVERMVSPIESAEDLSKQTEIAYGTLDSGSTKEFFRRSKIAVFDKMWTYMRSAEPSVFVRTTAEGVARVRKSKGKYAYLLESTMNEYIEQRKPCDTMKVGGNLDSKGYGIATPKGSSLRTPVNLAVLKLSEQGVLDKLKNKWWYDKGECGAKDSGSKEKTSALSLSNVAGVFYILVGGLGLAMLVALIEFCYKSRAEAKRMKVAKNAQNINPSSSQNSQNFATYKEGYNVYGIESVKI
structure (smiles),measurement,value
"CC(C)S(=O)(=O)N[C@@H]1CN(C)C[C@H]1c1ccc(-c2cccc(N(C)S(C)(=O)=O)c2)cc1 (relative stereo) [Example 19, N-(trans-1-methyl-4-{3′-[methyl(methylsulfonyl)amino]-4-biphenylyl}-3-pyrrolidinyl)-2-propanesulfonamide]",EC50,1580 nM
